Measurements taken from patent publication US20220009894A1, “1,2,3,4-TETRAHYDROQUINOXALINE DERIVATIVE, PREPARATION METHOD THEREFOR AND APPLICATION THEREOF” (Abbisko Therapeutics Co., Ltd., priority 2019, published 2022).

Experiments:
RORγt-LBD = target: T1, RORγt-LBD (Homo sapiens, UniProt P51449); test: Time-resolved fluorescence resonance energy-transfer assay (TR-FRET), co-activator peptide recruitment; assay type: biochemical; design: TR-FRET Biochemical Amax: unit not given here; conditions: for EC50: His-RORγt-LBD 30 nM, SRC peptide 500 nM, agonistic activity, averages of one or more measurements, read-out: TR-FRET Biochemical EC50/; for TR-FRET Biochemical Amax: upper activation limit, His-RORγt-LBD, SRC peptide
T1 sequence (P51449 269-508 limits assumed): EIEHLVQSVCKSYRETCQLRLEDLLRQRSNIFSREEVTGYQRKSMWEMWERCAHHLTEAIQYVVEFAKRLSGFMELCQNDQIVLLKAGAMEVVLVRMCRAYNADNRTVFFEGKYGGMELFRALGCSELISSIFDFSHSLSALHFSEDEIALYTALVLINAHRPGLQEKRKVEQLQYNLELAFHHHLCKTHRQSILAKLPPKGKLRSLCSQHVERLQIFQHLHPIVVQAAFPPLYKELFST
Procedure, shortened: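 This agonist-mode TR-FRET used 30 nM His-tagged RORγt-LBD, 500 nM biotinylated SRC peptide, 0.25 nM Eu-anti-His and 5 nM APC-streptavidin in pH 7.0 Tris/KCl buffer with DTT and Triton. A 7-concentration, 5-fold compound series was incubated at 4 °C overnight plus 1 h at room temperature, and the 665/615 nm signal was read.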

RORγt = target: T2, RORγt (Homo sapiens, UniProt P51449); test: RORγt cellular reporter gene detection assay; assay type: cell-based; conditions: 24 hrs; for EC50: HEK 293 cells co-transfected with pFN26A-RORγt-LBD and pG14.35, in presence of antagonist Ursolic acid, top concentration 50 μM; for Cellular Reporter Assay Amax: upper activation limit, HEK 293 cells, in presence of antagonist Ursolic acid;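 as to Cellular Reporter Assay Amax: Ursolic Acid added as 5 µL of 20 µM medium per well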
T2 construct: The plasmid of pFN26A-RORγt-LBD and pG14.35 (Promega, Cat. No. E1370) were co-transfected into HEK 293 cells; expressed in transfected cells; host or cells: HEK 293 cells (Cat. No. GNHu18)
T2 sequence (P51449 269-508 limits assumed): T1 sequence (P51449 269-508 limits assumed)
Procedure, shortened: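 Compounds, titrated 4-fold from a 50 μM top concentration, were added with Ursolic acid to HEK293 cells carrying a RORγt-LBD plasmid and a reporter plasmid. After 24 h at 37° C, dual firefly/Renilla luciferase readout; four-parameter curves gave EC50 and maximal activation (Amax).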

Row | EC50 (RORγt-LBD) | TR-FRET Biochemical Amax (RORγt-LBD) | EC50 (RORγt) | Cellular Reporter Assay Amax (RORγt) | SMILES
1 | 37 nM | 0.61 | 605 nM | 2.5 | N#Cc1cc(Cl)cc(-c2ccc3c(c2)N(S(=O)(=O)c2cccc(C(F)(F)F)c2)C[C@@H]2CN(CC(=O)O)CCN32)c1 [Example 97, (S)-2-(8-(3-chloro-5-cyanophe-nyl)-6-((3-(trifluoromethyl)phe-nyl)sulfonyl)-1,2,4,4a,5,6-hexa-hydro-3H-pyrazino[1,2-a]quinox-alin-3-yl)acetic acid]
2 | 20.6 nM | 0.75 | 1540 nM | 5.4 | O=S(=O)(c1cccc(C(F)(F)F)c1)N1C[C@@H]2COCCN2c2ccc(-c3cc(F)cc(OC(F)F)c3)cc21 [Example 98, (R)-8-(3-(difluoromethoxy)-5-fluorophenyl)-6-((3-(trifluoromethyl)phenyl)sulfonyl)-1,2,4,4a,5,6-hexahydro-[1,4]oxazino[4,3-a]quinoxaline]
3 | 40.3 nM | 0.74 | 4840 nM | 6.3 | O=S(=O)(c1cccc(C(F)(F)F)c1)N1C[C@H]2COCCN2c2ccc(-c3cc(F)cc(OC(F)F)c3)cc21 [Example 99]
4 | 91.7 nM | 0.84 | 3450 nM | 4.3 | O=S(=O)(c1cccc(C(F)(F)F)c1)N1CC2CSCCN2c2ccc(-c3cc(F)cc(OC(F)F)c3)cc21 (stereo not drawn) [Example 100, 8-(3-(difluoromethoxy)-5-fluorophenyl)-6-((3-(trifluoromethyl)phenyl)sulfonyl)-1,2,4,4a,5,6-hexahydro-[1,4]thiazino[4,3-a]quinoxaline]
5 | 40.9 nM | 0.45 | 913 nM | 3.9 | O=S(=O)(c1cccc(C(F)(F)F)c1)N1CC2C[S+]([O-])CCN2c2ccc(-c3cc(F)cc(OC(F)F)c3)cc21 (stereo not drawn) [Example 101, 8-(3-(difluoromethoxy)-5-fluorophenyl)-6-((3-(trifluoromethyl)phenyl)sulfonyl)-1,2,4,4a,5,6-hexahydro-[1,4]thiazino[4,3-a]quinoxaline 3-oxide]
6 | 809 nM | – | 2150 nM | – | O=S1(=O)CCN2c3ccc(-c4cc(F)cc(OC(F)F)c4)cc3N(S(=O)(=O)c3cccc(C(F)(F)F)c3)CC2C1 (stereo not drawn) [Example 102, 8-(3-(difluoromethoxy)-5-fluorophenyl)-6-((3-(trifluoromethyl)phenyl)sulfonyl)-1,2,4,4a,5,6-hexahydro-[1,4]thiazino[4,3-a]quinoxaline 3,3-dioxide]
7 | 41.1 nM | 0.49 | 1300 nM | 2.7 | O=S(=O)(c1cccc(C(F)(F)F)c1)N1C[C@@H]2CC(F)CCN2c2ccc(-c3cc(F)cc(OC(F)F)c3)cc21 (stereo partly drawn) [Example 103, (6aS)-3-(3-(difluoromethoxy)-5-fluorophenyl)-8-fluoro-5-((3-(trifluoromethyl)phenyl)sulfonyl)-6,6a,7,8,9,10-hexahydro-5H-pyrido[1,2-a]quinoxaline]
8 | 46.3 nM | 0.81 | 344 nM | 2.3 | NC(=O)OC1CCN2c3ccc(-c4cc(F)cc(OC(F)F)c4)cc3N(S(=O)(=O)c3cccc(C(F)(F)F)c3)C[C@@H]2C1 (stereo partly drawn) [Example 104, (6aS)-3-(3-(difluoromethoxy)-5-fluorophenyl)-5-((3-(trifluoromethyl)phenyl)sulfonyl)-6,6a,7,8,9,10-hexahydro-5H-pyrido[1,2-a]quinoxalin-8-yl carbamate]
9 | 170 nM | 0.69 | 955 nM | 4.8 | O=S(=O)(c1cccc(C(F)(F)F)c1)N1C[C@@H]2CC(O)CCN2c2ccc(-c3cc(F)cc(OC(F)F)c3)cc21 (stereo partly drawn) [Example 105, (6aS)-3-(3-(difluoromethoxy)-5-fluorophenyl)-5-((3-(trifluoromethyl)phenyl)sulfonyl)-6,6a,7,8,9,10-hexahydro-5H-pyrido[1,2-a]quinoxalin-8-ol]
10 | 72.5 nM | 0.48 | 704 nM | 4.1 | O=C(O)COC1CCN2c3ccc(-c4cc(F)cc(OC(F)F)c4)cc3N(S(=O)(=O)c3cccc(C(F)(F)F)c3)C[C@@H]2C1 (stereo partly drawn) [Example 106, 2-(((6aS)-3-(3-(difluoromethoxy)-5-fluorophenyl)-5-((3-(trifluoromethyl)phenyl)sulfonyl)-6,6a,7,8,9,10-hexahydro-5H-pyrido[1,2-a]quinoxalin-8-yl)oxy)acetic acid]
11 | 98.3 nM | 1.31 | 643 nM | 3.0 | C[C@@]1(O)CCN2c3ccc(-c4cc(F)cc(OC(F)F)c4)cc3N(S(=O)(=O)c3cccc(C(F)(F)F)c3)C[C@@H]2C1 [Example 107, (6aS,8R)-3-(3-(difluoromethoxy)-5-fluorophenyl)-8-methyl-5-((3-(trifluoromethyl)phenyl)sulfonyl)-6,6a,7,8,9,10-hexahydro-5H-pyrido[1,2-a]quinoxalin-8-ol]
12 | 55.4 nM | 0.99 | 1980 nM | 4.0 | C[C@]1(O)CCN2c3ccc(-c4cc(F)cc(OC(F)F)c4)cc3N(S(=O)(=O)c3cccc(C(F)(F)F)c3)C[C@@H]2C1 [Example 108, (6aS,8S)-3-(3-(difluoromethoxy)-5-fluorophenyl)-8-methyl-5-((3-(trifluoromethyl)phenyl)sulfo-nyl)-6,6a,7,8,9,10-hexa-hydro-5H-pyrido[1,2-a]quinoxalin-8-ol]
13 | 17.5 nM | 0.65 | 468 nM | 5.9 | O=C(O)CCOC1CCN2c3ccc(-c4cc(F)cc(OC(F)F)c4)cc3N(S(=O)(=O)c3cccc(C(F)(F)F)c3)C[C@@H]2C1 (stereo partly drawn) [Example 109, 3-(((6aS)-3-(3-(difluoromethoxy)-5-fluorophenyl)-5-((3-(trifluoromethyl)phenyl)sulfonyl)-6,6a,7,8,9,10-hexahydro-5H-pyrido[1,2-a]quinoxalin-8-yl)oxy)propanoic acid]
14 | 12.1 nM | 0.76 | 214 nM | 2.8 | CS(=O)(=O)COC1CCN2c3ccc(-c4cc(F)cc(OC(F)F)c4)cc3N(S(=O)(=O)c3cccc(C(F)(F)F)c3)C[C@@H]2C1 (stereo partly drawn) [Example 110, (6aS)-3-(3-(difluoromethoxy)-5-fluorophenyl)-8-((methylsulfonyl)methoxy)-5-((3-(trifluoromethyl)phenyl)sulfonyl)-6,6a,7,8,9,10-hexahydro-5H-pyrido[1,2-a]quinoxaline]
15 | 18.9 nM | 0.64 | 564 nM | 3.2 | CS(=O)(=O)CCOC1CCN2c3ccc(-c4cc(F)cc(OC(F)F)c4)cc3N(S(=O)(=O)c3cccc(C(F)(F)F)c3)C[C@@H]2C1 (stereo partly drawn) [Example 111, (6aS)-3-(3-(difluoromethoxy)-5-fluorophenyl)-8-((methylsulfonyl)ethoxy)-5-((3-(trifluoromethyl)phenyl)sulfonyl)-6,6a,7,8,9,10-hexahydro-5H-pyrido[1,2-a]quinoxaline]
16 | 273 nM | 0.33 | 1940 nM | 5.6 | O=S(=O)(c1cccc(C(F)(F)F)c1)N1C[C@@H]2CC(O[C@@H]3O[C@H](CO)[C@@H](O)[C@H](O)[C@H]3O)CCN2c2ccc(-c3cc(F)cc(OC(F)F)c3)cc21 (stereo partly drawn) [Example 112, (2R,3R,4S,5S,6R)-2-(((6aS)-3-(3-(difluoromethoxy)-5-fluorophenyl)-5-((3-(trifluoromethyl)phenyl)sulfonyl)-6,6a,7,8,9,10-hexahydro-5H-pyrido[1,2-a]quinoxalin-8-yl)oxy)-6-(hydroxymethyl)tetrahydro-2H-pyran-3,4,5-triol]
17 | 21.9 nM | 0.71 | 149 nM | 2.8 | C[C@@]1(OCCC(=O)O)CCN2c3ccc(-c4cc(F)cc(OC(F)F)c4)cc3N(S(=O)(=O)c3cccc(C(F)(F)F)c3)C[C@@H]2C1 [Example 113, 3-(((6aS,8R)-3-(3-(difluoromethoxy)-5-fluorophenyl)-8-methy 1-5-((3-(trifluoromethyl)phenyl)sulfonyl)-6,6a,7,8,9,10-hexahydro-5H-pyrido[1,2-a]quinoxalin-8-yl)oxy)propanoic acid]
